Reference: publication PMC11969024, “Development of chemokine network inhibitors using combinatorial saturation mutagenesis” (Communications Biology, 2025)

Test system: activated CD8+T-cells (ATC)
Test: Activated T-cell (ATC) migration induced by individual chemokines, inhibition by peptide
Assay type: cell-based, human
Conditions: for inhibition of CCL19, CCL21, CXCL9, and CXCL11-induced migration of ATCs compared to parental HD2: peptide 10 uM, chemokines at EC80, Dunnett's test
Method: Cell lines were confirmed mycoplasma free by monthly testing using a MycoAlert^TM kit (LT07-118, Lonza) following the manufacturer’s instructions. THP1 cells: THP1 cells (ECACC 88081201, a human monocyte leukemia cell line[51]) were obtained from ECACC and were cultured in T175 flasks at 0.3-1 × 10^6 cells/mL in Roswell Park Memorial Institute (RPMI) 1640 medium (R0883, Sigma) with 10% FBS (F9665, Sigma) and 5mM L-glutamine (G7513, Sigma), 37 °C, 5% CO2. J:CXCR1 cells: The J:CXCR1 cell line was cultured in the same manner as THP1 cells at 0.15-1 × 10^6 cells per mL[37]. Activated T-cells: T-cells were isolated, activated and expanded as follows. Briefly, density gradient centrifugation using Lymphoprep^TM density gradient medium (07801, […] Technologies) and a SepMate^TM isolation tube (85450, […] Technologies) was used to isolate peripheral blood mononuclear cells from human leukocyte cones. Two rounds of purification using a human CD8 + T-cell isolation kit (480011, BioLegend) were used to isolate CD8 + T-cells from peripheral blood mononuclear cells. Activation of CD8 + T-cells was performed in ImmunoCult^TM-XF T-cell expansion medium (10982, […] Technologies) with an anti-CD3/anti-CD28 T-cell activator at 25 μl/ml (10991, […] Technologies), supplemented with 10 ng/ml recombinant human IL-2 (200-02, PeproTech) with 1% penicillin/streptomycin. T-cells were passaged every 2–3 days in TexMACS medium (130-097-196, Miltenyi Biotec), supplemented with 10 ng/ml human IL-2 (200-05-250, Peprotech) and incubated at 37 °C in 5% CO2. CD8 + T-cells were frozen at day 10-13 after initial activation, at 20×10^6 cell/ml in TexMACS medium supplemented with 10% DMSO (D2650, Sigma) in liquid nitrogen. Activated CD8^+ T-cells were recovered in TexMACs medium at 0.3 × 10^6 cell/ml and incubated at 37 °C in 5% CO2, 24 h prior to use. For buffy coat experiments a mixture of primary human monocytes, granulocytes and lymphocytes was isolated from human buffy coat. Briefly, RBCs were sedimented in HetaSep (07806, […] Technologies) with 1 mL of HetaSep per 5 mL of blood for 15 min at 37 °C. The buffy coat layer was collected from the top and washed in 50 ml MACS buffer (PBS (P4417, Sigma), 0.5% BSA (A7030, Sigma), 0.075% EDTA (E5134, Sigma), pH 7.2), by centrifugation at 2000 g for 10 min at room temperature. The pellet was resuspended in 10 mL of 1x RBC lysis solution (130-094-183, Miltenyi Biotec) and lysed for 10 min at room temperature. The cells were then washed in MACS buffer twice as above. The final pellet was resuspended in 1 mL of MACS buffer per 5 mL of initial blood volume and counted using cell size FSC-H/SSC-H parameters with gate settings previously defined by immunostaining (see below). The leukocytes were then resuspended in assay buffer for cell migration and used within 30 min of isolation.
Cell counts were determined using an ATTUNE NxT Flow Cytometer with Cytkick autosampler (ThermoFisher), based on cell size parameters FSC-H/SSC-H, with previously defined gate settings. FSC-H/SSC-H gate settings for primary white blood cells from buffy coats were determined using flow cytometry to establish the granulocyte, monocyte and lymphocyte populations (Supplementary Fig. 13). Briefly, cells were labelled with anti-CD3 (Miltenyi Biotec, 130-113-135) to identify the T cell population, anti-CD14 (Miltenyi Biotec, 130-110-578) to identify the monocyte population, and with anti-CD16 (Miltenyi Biotec, 130-113-951) to identify the granulocyte population. Negative control cells were labelled with anti-human IgG1 (Miltenyi Biotec, 130-113-434). All antibodies were allophycocyanin (APC) conjugated. 100,000 white blood cells were added to Eppendorf tubes and centrifuged at 300 g for 3 min. The supernatant was discarded, and the cells resuspended in 98 µL of MACS buffer (1× PBS, 2 mM EDTA and 0.5% BSA, sterile filtered). 2 µl of antibody was added to the cells. […]

| Sequence | inhibition of chemokines e.g. CCL19, CCL21 and CXCL11 (ATC migration, statement of the discussion) | inhibition of CCL19, CCL21, CXCL9, and CXCL11-induced migration of ATCs compared to parental HD2 |
| --- | --- | --- |
| EEDDWTAYAPLTCYFT [HD2Y5W, HD2 point mutant] | de novo inhibition | significant improvement in inhibition |
| EEDDYWAYAPLTCYFT [HD2T6W, HD2 point mutant] |  | significant improvement in inhibition |
